Laboratory results from patent publication US4645747A, “Specific binding assay technique” (priority 1979, dated 1987).
Where two headings read alike, the source gives them in different places.

What was measured:
[1] = format: physicochemical; settings: for % Estriol extracted, Tracer only: ^125I estriol, no unlabelled estriol; for % Estriol extracted, with 250 ng/ml: with 250 ng/ml unlabelled estriol
Source text: The choice of the preferred solvent for each system is made by carrying out a simple experiment in each case as illustrated hereinafter.

[2] = cited from earlier work
[3] = test system: anti-THC antiserum, R-41Va; assay: THC RIA with solvent extraction or charcoal separation (Example 7); format: binding; settings: for % B/Bo Charcoal: dextran-coated charcoal
Description: An assay using the solvent extraction method was developed for tetrahydrocannabinol (THC) metabolites using a (^3 H)-THC tracer (Amersham). All assay components were prepared in tris-maleate buffer (pH 7.3) containing 0.2% PVP and 0.1% Triton X450 (trademark of Rohm and Haas). […]. The solvent, 500 μl, was added to the assay tubes and vortexed for 20-30 seconds. […]. The following Table 5 summarizes the results, expressed as % B/Bo for the three experiments.

RIA kit for estradiol = assay: Estradiol 17β (^3H) RIA, kit protocol vs solvent extraction (Example 5); format: binding; settings: for % B/Bo Expt. A (kit): kit protocol; for % B/Bo Expt. B (solvent extn.): solvent extraction
Description: A commercially available (^3 H) RIA kit for estradiol supplied by Isopac was tested by the solvent extraction method as follows:
All kit components were prepared according to kit directions. One experiment (A) was carried out exactly according to the kit protocol. A second, parallel experiment (B) was performed according to kit protocol up to, and including, the incubation step. […] After phase separation (about 10 minutes) the upper solvent phase, containing the free estradiol, was transferred to scintillation vials to which 5 ml of scintillation liquid (Instagel II, trademark of Packard) were added and the radioactivity determined.

[4] = test system: phenobarbitone antiserum R-66X; assay: Phenobarbitone RIA with solvent extraction (Example 6); format: binding; settings: mean of duplicates; for % B/Bo MIBK: methyl isobutyl ketone; for % B/Bo TBME: tert-butyl methyl ether
Description: The components used for a phenobarbitone RIA were a (^3 H) phenobarbitone tracer (N.E.N), a phenobarbitone antiserum R-66X (Technion) and tris-maleate assay buffer (pH 7.3, 0.078M Tris, 0.035M maleic acid) containing 0.1% PVP (polyvinyl pyrrolidone).
The tracrer, 100 μl (approx. 10 nono Ci/tube) was added to test-tubes followed by the addition of 50 μl phenobarbitone standards and 100 μl of diluted antiserum. All test-tubes were incubated overnight at 4° C. After incubation, 0.5 ml of solvent (tert-butyl methyl ether, TBME in one experiment and, MIBK in a parallel experiment) were added to each assay tube and vortexed for 20-30 seconds. After phase separation on standing, the aqueous phase was transferred to scintillation vials for radioactivity determination. The following Table 4, summarizes mean values (of duplicates) expressed as % B/Bo.

CCOC(C)=O [Ethyl acetate, ethyl acetate]
% Estriol extracted, Tracer only [1]: 90-94%
% Estriol extracted, with 250 ng/ml [1]: 90-92%
% solubility in water ([2]; in water): 3.3%

CC(=O)CC(C)C [Methyl isobutyl ketone, methyl isobutyl ketone]
% Estriol extracted, Tracer only [1]: 91-94%
% Estriol extracted, with 250 ng/ml [1]: 90-94%
% solubility in water ([2]; in water): 1.9%

CCCCCc1cc(O)c2c(c1)OC(C)(C)[C@@H]1CCC(C)=C[C@@H]21 [THC, tetrahydrocannabinol]
% B/Bo MIBK ([3]; standard 1 ng/ml): 98%
% B/Bo Charcoal ([3]; standard 1 ng/ml): 98%
% B/Bo t-amyl alcohol ([3]; standard 1 ng/ml): 90%
% B/Bo MIBK ([3]; standard 2 ng/ml): 84%
% B/Bo t-amyl alcohol ([3]; standard 2 ng/ml): 86%
% B/Bo MIBK ([3]; standard 4 ng/ml): 68%
% B/Bo Charcoal ([3]; standard 4 ng/ml): 86%
% B/Bo t-amyl alcohol ([3]; standard 4 ng/ml): 77%
% B/Bo MIBK ([3]; standard 10 ng/ml): 30%
% B/Bo Charcoal ([3]; standard 10 ng/ml): 55%
% B/Bo t-amyl alcohol ([3]; standard 10 ng/ml): 36%
% B/Bo MIBK ([3]; standard 20 ng/ml): 18%
% B/Bo Charcoal ([3]; standard 20 ng/ml): 32%
% B/Bo t-amyl alcohol ([3]; standard 20 ng/ml): 15%
% B/Bo MIBK ([3]; standard 40 ng/ml): 8%
% B/Bo Charcoal ([3]; standard 40 ng/ml): 21%
% B/Bo t-amyl alcohol ([3]; standard 40 ng/ml): 6%

ClCc1ccccc1 [Benzyl chloride]
% Estriol extracted, Tracer only [1]: 78-80%
% Estriol extracted, with 250 ng/ml [1]: 76-78%
% solubility in water ([2]; in water): 0.05%

C[C@]12CC[C@@H]3c4ccc(O)cc4CC[C@H]3[C@@H]1CC[C@@H]2O [Estradiol, Estradiol 17β]
% B/Bo Expt. A (kit) (RIA kit for estradiol; standard 25.0 pg/ml): 89.0%
% B/Bo Expt. B (solvent extn.) (RIA kit for estradiol; standard 25.0 pg/ml): 89.0%
% B/Bo Expt. A (kit) (RIA kit for estradiol; standard 50.0 pg/ml): 85.0%
% B/Bo Expt. B (solvent extn.) (RIA kit for estradiol; standard 50.0 pg/ml): 76.0%
% B/Bo Expt. A (kit) (RIA kit for estradiol; standard 100.0 pg/ml): 59.0%
% B/Bo Expt. B (solvent extn.) (RIA kit for estradiol; standard 100.0 pg/ml): 40.0%
% B/Bo Expt. A (kit) (RIA kit for estradiol; standard 200.0 pg/ml): 40.0%
% B/Bo Expt. B (solvent extn.) (RIA kit for estradiol; standard 200.0 pg/ml): 23.0%
% B/Bo Expt. A (kit) (RIA kit for estradiol; standard 400.0 pg/ml): 21.0%
% B/Bo Expt. B (solvent extn.) (RIA kit for estradiol; standard 400.0 pg/ml): 14.0%

ClCCl [Dichloromethane, dichloromethane]
% Estriol extracted, Tracer only [1]: 45-47%
% solubility in water ([2]; water): 2%

ClC(Cl)(Cl)Cl [Carbon tetrachloride, carbon tetrachloride]
% Estriol extracted, Tracer only [1]: 35-38%
% Estriol extracted, with 250 ng/ml [1]: 38-40%
% solubility in water ([2]; in water): 0.08%

CCN(CC)CC [Triethyl amine]
% Estriol extracted, Tracer only [1]: 86-91%
% Estriol extracted, with 250 ng/ml [1]: 86-90%

CCC1(c2ccccc2)C(=O)NC(=O)NC1=O [Phenobarbitone, phenobarbitone]
% B/Bo MIBK ([4]; standard 5 ng/ml): 73.0%
% B/Bo TBME ([4]; standard 5 ng/ml): 96.5%
% B/Bo MIBK ([4]; standard 10 ng/ml): 63.0%
% B/Bo TBME ([4]; standard 10 ng/ml): 79.0%
% B/Bo MIBK ([4]; standard 25 ng/ml): 45.0%
% B/Bo TBME ([4]; standard 25 ng/ml): 52.0%
% B/Bo MIBK ([4]; standard 50 ng/ml): 30.0%
% B/Bo TBME ([4]; standard 50 ng/ml): 30.0%
% B/Bo MIBK ([4]; standard 100 ng/ml): 19.0%
% B/Bo TBME ([4]; standard 100 ng/ml): 23.0%
